# Assay results reported in patent US10519145B2, “Pyrazole-oxazolidinone compound for anti-hepatitis B virus” (Shanghai Zhimeng Biopharma Co., Ltd., priority 2016, dated 2019).
# What was measured:
# HBV (HepG2.2.15 cells) = assay: Anti-HBV activity experiment in vitro (HepG2.2.15, HBV DNA in supernatant, qPCR); type: cell-based; conditions: Hepatitis B virus, HBV DNA in supernatant by qPCR, eighth day
# Protocol: Compound Dilution: initial concentrations of all compounds used in the anti-HBV activity experiments in vitro were 1 μM, 3-fold diluted into 8 concentrations; initial concentrations of all compounds used in the cytotoxicity assay were 100 μM, 3-fold diluted into 8 concentrations; and the mother liquor of the compound was diluted with DMSO.
# (§1) Anti-HBV Activity Experiment In Vitro: HepG2.2.15 cells (4×10^4 cells/well) were seeded in 96-well plates and cultured overnight at 37° C. in 5% CO2. The next day, fresh cultures containing compounds in different concentrations were added into the culture wells. On the fifth day, the old culture medium in the culture wells was aspirated and removed. Fresh medium containing compounds in different concentrations was added. On the eighth day, supernatants in the culture wells were collected and used to extract HBV DNA in the supernatant. qPCR assay was used to detect HBV DNA content in the HepG2.2.15 supernatant.
# The data analysis and the percentage of inhibition calculation: the percentage of inhibition was calculated by using the following formula: Inhibition %=[(HBV amount in DMSO control−HBV amount in sample)/HBV amount in DMSO control]×100%.
# [1] = Pharmacokinetic determination in rats (IV and PO); type: in vivo, Sprague Dawley rats; conditions: rat
# Protocol: The pharmacokinetics of the compound of Example 3 (racemate) in the present application was determined in rats.
# Test compounds were intravenously (IV) and orally (P0) administered to Sprague Dawley rats once. Blood samples were collected at different time points. LC/MS/MS was used to determine the concentration of the test compounds in the rat plasma after the administration of the test compounds and calculate the relating parameters.
# Time points for animal blood collection were: before administration, 5 min, 15 min, 30 min, 1 h, 2 h, 4 h, 6 h, 8 h and 24 h after administration. Approximately 0.3 mL of blood via jugular or other appropriate venipuncture was collected from each animal and anticoagulated with heparin sodium. Blood samples were collected and placed on ice, and plasma was centrifuged (centrifugation: 8000 rpm, 6 min, 4° C.). Plasma samples were stored in a −70° C. freezer before analysis.
# 50 μL of sample was taken into a 1.5 mL centrifuge tube, and 250 μL of internal standard solution was added. After subjected to vortex for 60 seconds and centrifugation for 5 min (14,000 revolutions/min), 200 μL of supernatant was taken into a 96-well sample plate for analysis.
# Mass spectrometer: API 4000, Applied Biosystems, Inc., Electrospray Ionization Source (ESI), Tandem quadrupole mass analyzer.
# Mass spectrometry conditions: ion source: electrospray ionization source (ESI); auxiliary gas (Gas1): 60 psi; auxiliary gas (Gas2): 60 psi; curtain gas (CUR): 14 psi; collision gas (CAD): 6; ion source voltage (IS): 5500V; ion source temperature (TEM): 550° C.
# Liquid phase conditions: chromatography Column: Thermo AQUASIL C18 (50×2.1 mm); chromatographic mobile phase: A is 0.1% formic acid in water, solution B is 0.1% formic acid in methanol (A:B=80%: 20%-10%: 90%); flow rate: 500 μL/min; injection volume: 1 μL.
# According to the drug blood concentration data, the pharmacokinetic parameters of the test compound were calculated using the pharmacokinetic calculation software WinNonlin 5.2 non-compartmental model.
# [2] = test system: nucleoside drug-resistant HBV strain M204I + V173L; assay: In vitro anti-nucleoside drug-resistant HBV strain activity experiment, transient transfection; type: cell-based; conditions: Hepatitis B virus, HepG2, 192 h
# Protocol: as §1, with “Compounds were tested for in vitro activity against nucleoside drug-resistant HBV strains using a transient transfection cell model. HepG2 cells” for “Anti-HBV Activity Experiment In Vitro: HepG2.2.15 cells”, “cells/well) that had been transfected with nucleoside drug-resistant HBV strains” for “cells/well)”, “seeded into” for “seeded in”, “removed. The fresh” for “removed. Fresh”, “the HepG2” for “the HepG2.2.15”
# [3] = test system: nucleoside drug-resistant HBV strain M204I + S202G; assay: as above; type: cell-based; conditions: Hepatitis B virus, HepG2, 192 h
# Protocol: as §1, with “Compounds were tested for in vitro activity against nucleoside drug-resistant HBV strains using a transient transfection cell model. HepG2 cells” for “Anti-HBV Activity Experiment In Vitro: HepG2.2.15 cells”, “cells/well) that had been transfected with nucleoside drug-resistant HBV strains” for “cells/well)”, “seeded into” for “seeded in”, “removed. The fresh” for “removed. Fresh”, “the HepG2” for “the HepG2.2.15”
# [4] = test system: nucleoside drug-resistant HBV strain L180M + M204V; assay: as above; type: cell-based; conditions: Hepatitis B virus, HepG2, 192 h
# Protocol: as §1, with “Compounds were tested for in vitro activity against nucleoside drug-resistant HBV strains using a transient transfection cell model. HepG2 cells” for “Anti-HBV Activity Experiment In Vitro: HepG2.2.15 cells”, “cells/well) that had been transfected with nucleoside drug-resistant HBV strains” for “cells/well)”, “seeded into” for “seeded in”, “removed. The fresh” for “removed. Fresh”, “the HepG2” for “the HepG2.2.15”
# [5] = test system: nucleoside drug-resistant HBV strain M204I + S202G + M250V; assay: as above; type: cell-based; conditions: Hepatitis B virus, HepG2, 192 h
# Protocol: as §1, with “Compounds were tested for in vitro activity against nucleoside drug-resistant HBV strains using a transient transfection cell model. HepG2 cells” for “Anti-HBV Activity Experiment In Vitro: HepG2.2.15 cells”, “cells/well) that had been transfected with nucleoside drug-resistant HBV strains” for “cells/well)”, “seeded into” for “seeded in”, “removed. The fresh” for “removed. Fresh”, “the HepG2” for “the HepG2.2.15”
# HBV strain U95551 (WT) = assay: as above; type: cell-based; conditions: Hepatitis B virus, transfected HepG2 cells
# Protocol: as §1, with “Compounds were tested for in vitro activity against nucleoside drug-resistant HBV strains using a transient transfection cell model. HepG2 cells” for “Anti-HBV Activity Experiment In Vitro: HepG2.2.15 cells”, “cells/well) that had been transfected with nucleoside drug-resistant HBV strains” for “cells/well)”, “seeded into” for “seeded in”, “removed. The fresh” for “removed. Fresh”, “the HepG2” for “the HepG2.2.15”
# [6] = test system: nucleoside drug-resistant HBV strain M204I; assay: as above; type: cell-based; conditions: Hepatitis B virus, HepG2
# Protocol: as §1, with “Compounds were tested for in vitro activity against nucleoside drug-resistant HBV strains using a transient transfection cell model. HepG2 cells” for “Anti-HBV Activity Experiment In Vitro: HepG2.2.15 cells”, “cells/well) that had been transfected with nucleoside drug-resistant HBV strains” for “cells/well)”, “seeded into” for “seeded in”, “removed. The fresh” for “removed. Fresh”, “the HepG2” for “the HepG2.2.15”
# [7] = test system: HBV genotype AB246345 (C); assay: Anti-different genotypic HBV strain activity assay in vitro, transient transfection; type: cell-based; conditions: Hepatitis B virus, HepG2
# Protocol: as §1, with “Compounds were tested for in vitro activity against different genotypic HBV strains using a transient transfection cell model. HepG2 cells” for “Anti-HBV Activity Experiment In Vitro: HepG2.2.15 cells”, “cells/well) that had been transfected with different HBV genotypic strains” for “cells/well)”, “seeded into” for “seeded in”, “removed. The fresh” for “removed. Fresh”, “to detected” for “to detect”, “the HepG2” for “the HepG2.2.15”
# [8] = test system: HBV genotype HE974371 (A2); assay: as above; type: cell-based; conditions: Hepatitis B virus, HepG2
# Protocol: as §1, with “Compounds were tested for in vitro activity against different genotypic HBV strains using a transient transfection cell model. HepG2 cells” for “Anti-HBV Activity Experiment In Vitro: HepG2.2.15 cells”, “cells/well) that had been transfected with different HBV genotypic strains” for “cells/well)”, “seeded into” for “seeded in”, “removed. The fresh” for “removed. Fresh”, “to detected” for “to detect”, “the HepG2” for “the HepG2.2.15”
# HBV genotype U95551 (D) = assay: as above; type: cell-based; conditions: Hepatitis B virus, HepG2
# Protocol: as §1, with “Compounds were tested for in vitro activity against different genotypic HBV strains using a transient transfection cell model. HepG2 cells” for “Anti-HBV Activity Experiment In Vitro: HepG2.2.15 cells”, “cells/well) that had been transfected with different HBV genotypic strains” for “cells/well)”, “seeded into” for “seeded in”, “removed. The fresh” for “removed. Fresh”, “to detected” for “to detect”, “the HepG2” for “the HepG2.2.15”
# [9] = test system: HBV genotype AP007263 (A); assay: as above; type: cell-based; conditions: Hepatitis B virus, HepG2
# Protocol: as §1, with “Compounds were tested for in vitro activity against different genotypic HBV strains using a transient transfection cell model. HepG2 cells” for “Anti-HBV Activity Experiment In Vitro: HepG2.2.15 cells”, “cells/well) that had been transfected with different HBV genotypic strains” for “cells/well)”, “seeded into” for “seeded in”, “removed. The fresh” for “removed. Fresh”, “to detected” for “to detect”, “the HepG2” for “the HepG2.2.15”
# [10] = test system: HBV genotype AB246346 (C); assay: as above; type: cell-based; conditions: Hepatitis B virus, HepG2
# Protocol: as §1, with “Compounds were tested for in vitro activity against different genotypic HBV strains using a transient transfection cell model. HepG2 cells” for “Anti-HBV Activity Experiment In Vitro: HepG2.2.15 cells”, “cells/well) that had been transfected with different HBV genotypic strains” for “cells/well)”, “seeded into” for “seeded in”, “removed. The fresh” for “removed. Fresh”, “to detected” for “to detect”, “the HepG2” for “the HepG2.2.15”
# [11] = test system: HBV genotype AB033554 (B); assay: as above; type: cell-based; conditions: Hepatitis B virus, HepG2
# Protocol: as §1, with “Compounds were tested for in vitro activity against different genotypic HBV strains using a transient transfection cell model. HepG2 cells” for “Anti-HBV Activity Experiment In Vitro: HepG2.2.15 cells”, “cells/well) that had been transfected with different HBV genotypic strains” for “cells/well)”, “seeded into” for “seeded in”, “removed. The fresh” for “removed. Fresh”, “to detected” for “to detect”, “the HepG2” for “the HepG2.2.15”
# [12] = test system: HBV genotype JN406371 (B); assay: as above; type: cell-based; conditions: Hepatitis B virus, HepG2
# Protocol: as §1, with “Compounds were tested for in vitro activity against different genotypic HBV strains using a transient transfection cell model. HepG2 cells” for “Anti-HBV Activity Experiment In Vitro: HepG2.2.15 cells”, “cells/well) that had been transfected with different HBV genotypic strains” for “cells/well)”, “seeded into” for “seeded in”, “removed. The fresh” for “removed. Fresh”, “to detected” for “to detect”, “the HepG2” for “the HepG2.2.15”
# [13] = Sprague Dawley, IV, single administration, plasma
# [14] = Sprague Dawley, PO, single administration, plasma
structure (smiles),measurement,setting,value
"O=C1COC(c2cn(-c3ccc(Br)cc3)nc2-c2ccc(F)cc2)N1CCc1ccc2[nH]c(=O)[nH]c2c1 (racemic) [example 3 racemate, 3-(2-(2-oxo-2,3-dihydro-1H-benzo[d]imidazol-5-yl)ethyl)-2-(1-(4-bromophenyl)-3-(4-fluorophenyl)-1H-pyrazol-4-yl)-oxazolidin-4-one]",EC50,HBV (HepG2.2.15 cells),0.0312 µM
same,Vd,"[1]; Sprague Dawley, plasma, IV, single administration, read-out: Vz",6.22 L/kg
same,AUC(0-inf),[1]; [13],3.88 µg·h/mL
same,Cmax,[1]; [13],5.46 µg/mL
same,Tmax,[1]; [13],0.083 h
same,half-life,[1]; [13],3.52 h
same,AUC(0-inf),[1]; [14],0.773 µg·h/mL
same,Cmax,[1]; [14],0.201 µg/mL
same,Tmax,[1]; [14],0.83 h
same,half-life,[1]; [14],2.07 h
same,CLz,"[1]; IV, single administration",1.31 L/h/kg
same,F,[1]; PO vs IV,18.55%
same,Vz,"[1]; PO, single administration",3.58 L/kg
O=C1Cc2cc(CCN3C(=O)COC3c3cn(-c4ccc(Br)cc4)nc3-c3ccc(F)cc3)ccc2N1 (racemic) [example 13 racemate],EC50,[2],0.0722 µM
same,EC50,[3],0.0747 µM
same,EC50,[4],0.103 µM
same,EC50,[5],0.0874 µM
same,EC50,HBV strain U95551 (WT),0.082 µM
same,EC50,[6],0.0758 µM
same,EC50,[7],0.0309 µM
same,EC50,[8],0.0325 µM
same,EC50,HBV genotype U95551 (D),0.0868 µM
same,EC50,[9],0.168 µM
same,EC50,[10],0.0592 µM
same,EC50,[11],0.047 µM
same,EC50,[12],0.036 µM
same,EC50,HBV (HepG2.2.15 cells),0.022 µM
